Laboratory results taken from article PMC9331957, “Design and Validation of Nanofibers Made of Self-Assembled Peptides to Become Multifunctional Stimuli-Sensitive Nanovectors of Anticancer Drug Doxorubicin” (Pharmaceutics, 2022).

Experiments:
[1] = tested on: MDA-MB-231 cells; settings: 1 h, 5 µM
Text: To study the uptake of the nanofibers by cancer cells in vitro, the intrinsic fluorescence of the Doxo was followed by means of the confocal spectral imaging (CSI) technique. Briefly, the CSI consists in recording a full fluorescence spectrum from each point of a scanned optical section of the selected cell and then generating the maps (pseudo-color images) reflecting the distribution of spectral parameters (position, shape, width, intensity) in correlation with biochemical events (accumulation, interaction, metabolism, etc). The cells (SKBR3 or MDA-MB-435 cancer cell lines) were plated at a density of 5 × 10^4 cells/well onto cover glasses in 24-well plates for 1 or 6 h. […] They were analyzed under the 50× LWD objective (numerical aperture 0.75; Olympus, Tokyo, Japan) of a LabRam laser scanning confocal microspectrometer (Horiba SA, Villeneuve d’Ascq, Hauts De France, France) equipped with a 491 nm laser source (Cobolt Calypso™), an automated X–Y–Z scanning stage, a low dispersion grating (300 grooves/mm) and an air-cooled EM CCD detector. […] For fluorescence spectral images acquisition from living cells, the living cells were placed under a 50× microscope and scanned through their equatorial optical section (scanning step of 0.8 µm). The full fluorescence spectrum was recorded from each scanned point (typically 30 × 30 spectra per cell, 0.05 s per spectrum). […]

[2] = tested on: MDA-MB-231; test: Cell proliferation assay (CellTiter-Glo, ATP luminescence); type: cell-based, human; settings: MDA-MB-231, 72 h
Experimental: The cytotoxicity profiles of the NF-Doxo and NF-Doxo-SPION were established on cancer cell line MDA-MB-231 (triple negative human breast cancer). Triple MDA-MB-231 (ECACC, Salisbury, UK) cells were cultured at 37 °C in an atmosphere containing 5% CO2. The culture medium was made of DMEM supplemented with 10% fetal bovine serum, 1% non-essential amino acid (Hyclone Laboratories, Logan, UT, USA), and 1% penicillin/streptomycin (Gibco®, Life Technologies, Paisley, UK). The cell harvesting was made with trypsin/EDTA (0.05%) (Gibco®, Life Technologies, Paisley, UK) at 80% of confluence.
Cell viability and proliferation were studied, using a luminescent test based on quantification of ATP, using the CellTiter-Glo cell proliferation assay (Promega, Madison, WI, USA). Briefly, 3.000 MDA-MB-231 cells were incubated in 100 μL of medium in 96-well plates for 24 h and then treated with different samples. A H2O2 solution at 10 mM was used as positive control and the culture medium alone was tested as a negative control. Doxo (stock solution at 5.24 mM in PBS) was used as a reference. […] Cell viability was then determined using CellTiter-Glo reagent (Promega, Madison, WI, USA). […] The luminescence values were measured with a gain at 135, with an acquisition at 0.5 s, using a microplate reader (Bio-Tek® instruments, Inc., VT, Santa Clara, CA, USA). […]

How did the “fraction of intracellular fluorescence: cytosolic” value [1] turn out when `COc1cccc2c1C(=O)c1c(O)c3c(c(O)c1C2=O)C[C@@](O)(C(=O)CO)C[C@@H]3O[C@H]1C[C@H](N)[C@H](O)[C@H](C)O1` [Doxo, Doxorubicin] was run?
The value was 24.6.

What about the “fraction of intracellular fluorescence: nuclear” value [1] of the same compound?
Its value is 75.4.

And the “IC50 ratio between NF-Doxo and free Doxo (times lower)” value [2]?
The value was 10 times.
